Assay results from patent US9394297B2, “Amides as pim inhibitors” (AMGEN INC., priority 2012, dated 2016).
Where a name gives a salt, the structure may show the parent alone.

Tests used:
Pim-1 = Pim-1 (Homo sapiens (Human), UniProt P11309); assay: Pim enzyme assay (HTRF, 96-well), Pim-1; type: biochemical; conditions: full length recombinant Pim-1, biotinylated-BAD (S112) peptide, 10-point curve, 2 h RT, read-out: Pim-1 IC50 IP
Description: (§1) These cDNAs were used as templates in PCR reactions to produce full-length DNA clones of the PIMs. […] PCR products were digested with BclI and EcoRI for Pim-1 and BamHI and EcoRI for Pim-2 and ligated into a modified baculovirus transfer vector (pFastBac1) cleaved with BamHI and EcoRI. For bacterial expression, the same cleaved PCR products encoding Pim-1 or Pim-2 were ligated into a modified E. coli expression vector pET28(a) cleaved with BamHI and EcoRI. Amino-terminal hexahistidine tags followed by a thrombin cleavage site were previously added to the vectors using standard methods of molecular biology.
(§2) Recombinant baculoviruses expressing Pim-1 or Pim-2 were made using standard methods (Fastbac manual, Invitrogen, Carlsbad, Calif.). […] Cells were harvested by centrifugation and frozen at −80 C. For E. coli expression, cells carrying pET28-His6-Th-Pim-1 or pET28-His6-Th-Pim-2 were picked from a single colony and grown o/n in LB media. The o/n culture was used to inoculate a 2 liter flask with 500 mL media. This was grown o/n and used to inoculate 15-20 liters of Terrific Broth in a New Brunswick Scientific fermentor. The E. coli were grown at 37° C. to and OD600 >1.6. The temperature was dropped to 18° C. and o/n expression was induced with 0.5 mM IPTG. Cells were harvested by centrifugation and frozen at −80° C.
(§3) The slurry was centrifuged at 1,000×g for 5 min, the supernatant decanted, and the resin suspended in 40 mL of lysis wash buffer (lysis buffer at 0.75 M NaCl). This step was repeated 3× and the resin was transferred to a 2.5 cm glass column. Ten column volumes of wash buffer (0.05 M HEPES, pH 8.0, 0.1 M NaCl, 0.01 M 2-mercaptoethanol, 10%(w/v) glycerol) were applied to the resin followed by 10 column volumes of elution buffer (0.05 M HEPES, pH 8.0, 0.25 M NaCl, 0.01 M 2-mercaptoethanol, 10%(w/v) glycerol, 0.1 M imidazole). Fractions were analyzed by SDS-PAGE and those containing the protein of interest were pooled and concentrated. The concentrated protein was applied to an Amersham Superdex 75 (XK 26/60) column equilibrated in 0.025 M Tris-HCl, pH 7.5, 0.1 M NaCl, 0.01 M 2-mercaptoethanol, 10% (w/v) glycerol. […] Fractions containing the monomeric protein of interest were pooled, concentrated to ˜2 mg/mL, and stored at −80° C.
(§4) The phosphorylation of biotinylated-BAD (S112) peptide by full length recombinant Pim-1, Pim-2, or Pim-3 protein was detected with streptavidin:Allophycocyanin (APC) conjugate and a europium (Eu) labeled antibody directed against phosphorylated-BAD (S112). […] The fluorescence is directly proportional to the amount of phosphorylated BAD peptide present in the reaction. […] A reference compound was included on each assay plate in order to validate that plate; on one plate of every assay run, two additional reference compounds were included. The final buffer conditions were as follows: 60 mM Hepes, pH 7.0, 0.05% BSA, 2 mM DTT. Incubations were carried out at RT (22° C.) for 2 h for Pim-1, 1 hour and 30 min for Pim-3, and 45 min for Pim-2. The reaction was stopped by the addition of 3 mM EDTA, and fluorescence was measured by an HTRF® Rubystar microplate reader. For each plate, percent of control (POC) values were calculated for each well. Values for the IC50 IP were estimated using a standard 4-parameter logistic model.

Pim-2 = Pim-2 (Homo sapiens (Human), UniProt Q9P1W9); assay: Pim enzyme assay (HTRF, 96-well), Pim-2; type: biochemical; conditions: full length recombinant Pim-2, biotinylated-BAD (S112) peptide, 10-point curve, 45 min RT, read-out: Pim-2 IC50 IP
Description: as §1, §2, §3, §4

[1] = test system: KMS-12-BM myeloma cell line; assay: Pim KMS-12 cell assay (phospho-BAD S112 / total BAD, MSD); conditions: Homo sapiens, KMS-12-BM, read-out: KMS-12-BM IC50 IP, KMS-12-BM cells, phospho-BAD (S112) vs total BAD, 1 hour 50 min with compound

Sequence of Pim-1 (P11309 whole entry): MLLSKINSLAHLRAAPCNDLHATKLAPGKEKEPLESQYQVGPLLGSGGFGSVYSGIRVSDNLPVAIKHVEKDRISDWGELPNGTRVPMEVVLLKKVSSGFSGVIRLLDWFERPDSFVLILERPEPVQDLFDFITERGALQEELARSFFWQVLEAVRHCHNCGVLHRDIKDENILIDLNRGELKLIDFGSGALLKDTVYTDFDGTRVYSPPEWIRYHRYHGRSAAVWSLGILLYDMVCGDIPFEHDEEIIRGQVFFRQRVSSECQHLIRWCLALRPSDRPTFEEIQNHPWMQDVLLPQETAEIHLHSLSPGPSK
Sequence of Pim-2 (Q9P1W9 whole entry): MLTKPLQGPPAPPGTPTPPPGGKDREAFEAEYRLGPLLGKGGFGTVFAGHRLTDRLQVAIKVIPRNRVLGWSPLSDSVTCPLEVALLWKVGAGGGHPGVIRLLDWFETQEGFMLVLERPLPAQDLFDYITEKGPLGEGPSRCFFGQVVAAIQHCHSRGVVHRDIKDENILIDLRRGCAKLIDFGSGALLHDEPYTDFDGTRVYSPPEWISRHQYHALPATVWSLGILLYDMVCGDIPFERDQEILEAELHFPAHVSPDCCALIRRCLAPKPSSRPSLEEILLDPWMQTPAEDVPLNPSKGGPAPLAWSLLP

Structure (SMILES) | IC50 (Pim-1) | IC50 (Pim-2) | IC50 [1]
Cc1nc2cccc(-c3cc4c([nH]3)CCNC4=O)c2nc1N[C@H](C)C(N)=O [Example 128, (R)-2-((3-methyl-8-(4-oxo-4,5,6,7-tetrahydro-1H-pyrrolo[3,2-c]pyridin-2-yl)quinoxalin-2-yl)amino)propanamide] | 204 nM | 222 nM | 
COC(=O)[C@@H](C)Nc1nc2c(-c3cc4c([nH]3)CCNC4=O)cccc2nc1C [Example 137, (R)-methyl 2-((3-methyl-8-(4-oxo-4,5,6,7-tetrahydro-1H-pyrrolo[3,2-c]pyridin-2-yl)quinoxalin-2-yl)amino)propanoate] | 96.7 nM | 74.1 nM | 
O=C1NCC(Cc2ccccc2)c2[nH]c(-c3cccc4cccnc34)cc21 (racemic) [Example 119, rac-7-benzyl-2-(quinolin-8-yl)-6,7-dihydro-1H-pyrrolo[3,2-c]pyridin-4(5H)-one] | 39.4 nM | 206 nM | 
O=C1NCCc2[nH]c(-c3cccc4ccc(Nc5cccc(Cl)c5)nc34)cc21 [Example 40, 2-(2-((3-chlorophenyl)amino)-8-quinolinyl)-1,5,6,7-tetrahydro-4H-pyrrolo[3,2-c]pyridin-4-one] | 1.8 nM | 14.3 nM | 
COc1ccc(Cl)cc1-c1ccc2cccc(-c3cc4c([nH]3)CCNC4=O)c2n1 [Example 88, 2-(2-(5-chloro-2-methoxyphenyl)quinolin-8-yl)-6,7-dihydro-1H-pyrrolo[3,2-c]pyridin-4(5H)-one] | 42.1 nM | 166 nM | 
O=C1NCCc2[nH]c(-c3cccc4ccc(N[C@@H]5CCCNC5)nc34)cc21 [Example 124, (R)-2-(2-(piperidin-3-ylamino)quinolin-8-yl)-6,7-dihydro-1H-pyrrolo[3,2-c]pyridin-4(5H)-one] | 6.4 nM | 141 nM | 
O=C1NCCc2[nH]c(-c3cccc4ccc(Oc5ccc(Cl)cc5)nc34)cc21 [Example 18, 2-(2-(4-chlorophenoxy)quinolin-8-yl)-6,7-dihydro-1H-pyrrolo[3,2-c]pyridin-4(5H)-one] | 15.5 nM | 44.9 nM | 
O=C1NCCc2[nH]c(-c3cccc4ccc(O[C@@H]5CCCNC5)nc34)cc21 [Example 89, (R)-2-(2-(piperidin-3-yloxy)quinolin-8-yl)-6,7-dihydro-1H-pyrrolo[3,2-c]pyridin-4(5H)-one] | 46.6 nM | 340 nM | 
Cc1cccc(Oc2ccc3cccc(-c4cc5c([nH]4)CCNC5=O)c3n2)c1 [Example 43, 2-(2-(3-methylphenoxy)-8-quinolinyl)-1,5,6,7-tetrahydro-4H-pyrrolo[3,2-c]pyridin-4-one] | 17.9 nM | 47.8 nM | 
O=c1[nH]cnc2[nH]c(-c3cccc4ccc(Cl)nc34)cc12 [Example 19, 6-(2-chloroquinolin-8-yl)-3H-pyrrolo[2,3-d]pyrimidin-4(7H)-one trifluoroacetate] | 133 nM | 908 nM | 
COC(=O)[C@H](C)Nc1nc2c(-c3cc4c([nH]3)CCNC4=O)cccc2nc1C [Example 136, (S)-methyl 2-((3-methyl-8-(4-oxo-4,5,6,7-tetrahydro-1H-pyrrolo[3,2-c]pyridin-2-yl)quinoxalin-2-yl)amino)propanoate] | 49.5 nM | 154 nM | 
O=C1NCCc2[nH]c(-c3cccc4ccc(Oc5cccc(Cl)c5)nc34)cc21 [Example 41, 2-(2-(3-chlorophenoxy)-8-quinolinyl)-1,5,6,7-tetrahydro-4H-pyrrolo[3,2-c]pyridin-4-one] | 13.6 nM | 68 nM | 

Further molecules by falling IC50 (Pim-2), results first:

IC50 (Pim-1) | IC50 (Pim-2) | IC50 [1] | Structure (SMILES)
6 nM | 95.6 nM |  | O=C1NCCc2[nH]c(-c3cccc4ccc(OC5CCNCC5)nc34)cc21 [Example 81, 2-(2-(piperidin-4-yloxy)quinolin-8-yl)-6,7-dihydro-1H-pyrrolo[3,2-c]pyridin-4(5H)-one]
34 nM | 80.2 nM |  | O=c1[nH]cnc2[nH]c(-c3cccc4ccc(Oc5ccccc5)nc34)cc12 [Example 17, 6-(2-phenoxyquinolin-8-yl)-3H-pyrrolo[2,3-d]pyrimidin-4(7H)-one]
28.6 nM | 71.8 nM |  | O=c1[nH]ccc2[nH]c(-c3cccc4ccc(Nc5ccccc5)nc34)nc12 [Example 189, 2-(2-(phenylamino)quinolin-8-yl)-1H-imidazo[4,5-c]pyridin-4(5H)-one 2,2,2-trifluoroacetate]
23.3 nM | 52.9 nM |  | Cc1ccc(C(N)=O)cc1-c1ccc2cccc(-c3cc4c([nH]3)CCNC4=O)c2n1 [Example 232, 4-methyl-3-(8-(4-oxo-4,5,6,7-tetrahydro-1H-pyrrolo[3,2-c]pyridin-2-yl)-2-quinolinyl)benzamide]
34.8 nM | 30.1 nM |  | Cc1nc2cccc(-c3cc4c([nH]3)CCNC4=O)c2nc1N1CCCC1 [Example 138, 2-(2-methyl-3-(pyrrolidin-1-yl)quinoxalin-5-yl)-6,7-dihydro-1H-pyrrolo[3,2-c]pyridin-4(5H)-one]
0.6 nM | 22.6 nM |  | N[C@@H]1CCC[C@H](Nc2ccc3cccc(-c4cc5c([nH]4)CCNC5=O)c3n2)C1 (single isomer, unassigned) [Example 121, 2-(2-((cis-3-aminocyclohexyl)amino)quinolin-8-yl)-6,7-dihydro-1H-pyrrolo[3,2-c]pyridin-4(5H)-one]
 | 15.8 nM | 8810 nM | O=C1NCCc2[nH]c(-c3cccc4ccc(Oc5cccc(O)c5)nc34)cc21 [Example 109, 2-(2-(3-hydroxyphenoxy)quinolin-8-yl)-6,7-dihydro-1H-pyrrolo[3,2-c]pyridin-4(5H)-one]
8.3 nM | 13.5 nM |  | O=C1NCCc2[nH]c(-c3cccc4cnc(Nc5ccccc5)nc34)cc21 [Example 251, 2-(2-(phenylamino)quinazolin-8-yl)-6,7-dihydro-1H-pyrrolo[3,2-c]pyridin-4(5H)-one]
2 nM | 11 nM |  | O=c1[nH]ccc2[nH]c(-c3cccc4ccc(Nc5c(F)cccc5Cl)nc34)cc12 [Example 12, 2-(2-((2-chloro-6-fluorophenyl)amino)quinolin-8-yl)-1H-pyrrolo[3,2-c]pyridin-4(5H)-one]
 | 8.9 nM | 4180 nM | O=C1NCCc2[nH]c(-c3cccc4ccc(C5(c6ccccc6)CC5)nc34)cc21 [Example 114, 2-(2-(1-phenylcyclopropyl)quinolin-8-yl)-6,7-dihydro-1H-pyrrolo[3,2-c]pyridin-4(5H)-one]
4.7 nM | 8.1 nM |  | C=C(c1ccccc1)c1ccc2cccc(-c3cc4c([nH]3)CCNC4=O)c2n1 [Example 113, 2-(2-(1-phenylvinyl)quinolin-8-yl)-6,7-dihydro-1H-pyrrolo[3,2-c]pyridin-4(5H)-one]
 | 6.6 nM | 376 nM | CCCNc1nc2c(-c3cc4c([nH]3)CCNC4=O)cccc2nc1C [Example 191, 2-(2-methyl-3-(propylamino)-5-quinoxalinyl)-1,5,6,7-tetrahydro-4H-pyrrolo[3,2-c]pyridin-4-one]
0.8 nM | 2.8 nM |  | O=C1NCCc2[nH]c(-c3cccc4ccc(Nc5cncnc5)nc34)cc21 [Example 13, 2-(2-(pyrimidin-5-ylamino)quinolin-8-yl)-6,7-dihydro-1H-pyrrolo[3,2-c]pyridin-4(5H)-one]
